Data as given in PubChem BioAssay AID256 (DTP/NCI, 2004).
Values joined by “and” are separate entries in the source; they are usually repeats but may differ in a detail not shown here. Identical values can stand only once. Toxic doses and inconclusive results are not listed. The calls were made as follows: active = survival T/C of 150% or more; inactive = T/C below 125% in these data.

Tested on: CD2F1 mice, L1210 leukemia ip, survival T/C
Assay: NCI In Vivo Anticancer Drug Screen. Data for tumor model L1210 Leukemia (intraperitoneal) in CD2F1 (CDF1) mice
Conditions: higher = longer survival
In short: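 Each value reflects a quotient of treated over vehicle control outcomes in mice with a transplanted tumor.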

[1] = endpoint: mean survival time, dose: 50.0 mg/kg/injection, schedule: Q01DX009 (ip), vehicle: saline with Tween-80
[2] = endpoint: mean survival time, dose: 100.0 mg/kg/injection, schedule: Q01DX009 (ip), vehicle: saline with Tween-80
[3] = endpoint: mean survival time, dose: 100.0 mg/kg/injection, schedule: Q04DX003 (ip), vehicle: saline with Tween-80
[4] = endpoint: mean survival time, dose: 200.0 mg/kg/injection, schedule: Q01DX009 (ip), vehicle: saline with Tween-80
[5] = endpoint: mean survival time, dose: 200.0 mg/kg/injection, schedule: Q04DX003 (ip), vehicle: saline with Tween-80
[6] = endpoint: mean survival time, dose: 100.0 mg/kg/injection, schedule: Q01DX001 (ip), vehicle: saline with Tween-80
[7] = endpoint: mean survival time, dose: 200.0 mg/kg/injection, schedule: Q01DX001 (ip), vehicle: saline with Tween-80
[8] = endpoint: mean survival time, dose: 400.0 mg/kg/injection, schedule: Q01DX009 (ip), vehicle: saline with Tween-80
[9] = endpoint: mean survival time, dose: 400.0 mg/kg/injection, schedule: Q04DX003 (ip), vehicle: saline with Tween-80
[10] = endpoint: mean survival time, dose: 12.5 mg/kg/injection, schedule: Q01DX009 (ip), vehicle: Klucel (hydroxypropylcellulose) (HPC)
[11] = endpoint: mean survival time, dose: 25.0 mg/kg/injection, schedule: Q01DX009 (ip), vehicle: Klucel (hydroxypropylcellulose) (HPC)
[12] = endpoint: mean survival time, dose: 50.0 mg/kg/injection, schedule: Q01DX009 (ip), vehicle: Klucel (hydroxypropylcellulose) (HPC)
[13] = endpoint: mean survival time, dose: 100.0 mg/kg/injection, schedule: Q01DX009 (ip), vehicle: Klucel (hydroxypropylcellulose) (HPC)
[14] = endpoint: mean survival time, dose: 200.0 mg/kg/injection, schedule: Q01DX009 (ip), vehicle: Klucel (hydroxypropylcellulose) (HPC)
[15] = endpoint: mean survival time, dose: 25.0 mg/kg/injection, schedule: Q01DX009 (ip), vehicle: saline with Tween-80

Measured: T/C

Nc1ncnc2c1ccn2C1OC2COP(=O)(O)OC2C1O (stereo not drawn)
inactive: endpoint: mean survival time, dose: 5.0 mg/kg/injection, schedule: Q01DX001 (ip), vehicle: saline 98 % of control | endpoint: mean survival time, dose: 10.0 mg/kg/injection, schedule: Q01DX001 (ip), vehicle: saline 102 % of control | endpoint: mean survival time, dose: 20.0 mg/kg/injection, schedule: Q01DX001 (ip), vehicle: saline 114 % of control | endpoint: mean survival time, dose: 40.0 mg/kg/injection, schedule: Q01DX001 (ip), vehicle: saline 117 % of control

ON1C=CC2C=CC1c1ccccc12 (stereo not drawn)
inactive: endpoint: median survival time, dose: 50.0 mg/kg/injection, schedule: Q04DX002 (ip), vehicle: saline with Tween-80 100 % of control | endpoint: median survival time, dose: 100.0 mg/kg/injection, schedule: Q04DX002 (ip), vehicle: saline with Tween-80 88 % of control | endpoint: median survival time, dose: 200.0 mg/kg/injection, schedule: Q04DX002 (ip), vehicle: saline with Tween-80 88 % of control

COc1cc(OC)c2c(c1Cl)OC(C(C)=O)C2=O (stereo not drawn)
inactive: [1] 97 % of control | [2] 102 % of control | [3] 93 % of control | [4] 96 % of control | [5] 102 % of control

CCCCCC(C)C1=NC(C)(C)CC(C)O1 (stereo not drawn)
inactive: endpoint: mean survival time, dose: 5.0 mg/kg/injection, schedule: Q01DX009 (ip), vehicle: saline 94 % of control | endpoint: mean survival time, dose: 10.0 mg/kg/injection, schedule: Q01DX009 (ip), vehicle: saline 95 % of control | endpoint: mean survival time, dose: 20.0 mg/kg/injection, schedule: Q01DX009 (ip), vehicle: saline 97 % of control | [6] 97 % of control | [7] 93 % of control

CCOC(=O)c1cc(CO)nc2c(Cl)cc(Cl)cc12
inactive: [2] 91 % of control | [3] 93 % of control | [4] 90 % of control | [5] 90 % of control | [8] 90 % of control | [9] 93 % of control

COc1cc2c(cc1OC)-c1c3c(cc4c1[C@@H](C2)N(C)CC4)OCO3
inactive: endpoint: median survival time, dose: 12.5 mg/kg/injection, schedule: Q01DX005 (ip), vehicle: distilled water + Tween-80 96 % of control | endpoint: median survival time, dose: 25.0 mg/kg/injection, schedule: Q01DX005 (ip), vehicle: distilled water + Tween-80 104 % of control | endpoint: median survival time, dose: 50.0 mg/kg/injection, schedule: Q01DX005 (ip), vehicle: distilled water + Tween-80 87 % of control | endpoint: median survival time, dose: 100.0 mg/kg/injection, schedule: Q01DX005 (ip), vehicle: distilled water + Tween-80 107 % of control

NC(=O)c1cn(C2OC(CO)C(O)C2O)c2ncn3ncnc3c12 (stereo not drawn)
inactive: endpoint: mean survival time, dose: 3.13 mg/kg/injection, schedule: Q01DX005 (ip), vehicle: water 113 % of control | endpoint: mean survival time, dose: 6.25 mg/kg/injection, schedule: Q01DX005 (ip), vehicle: water 112 % of control | endpoint: mean survival time, dose: 12.5 mg/kg/injection, schedule: Q01DX005 (ip), vehicle: water 116 % of control | endpoint: mean survival time, dose: 50.0 mg/kg/injection, schedule: Q01DX005 (ip), vehicle: water 98 % of control

CC(=O)[O][Pb]([O]C(C)=O)([c]1ccccc1)[c]1ccccc1
inactive: endpoint: mean survival time, dose: 6.25 mg/kg/injection, schedule: Q01DX009 (ip), vehicle: Klucel (hydroxypropylcellulose) (HPC) 89 % of control and 97 % of control | [10] 87 % of control and 100 % of control | [11] 96 % of control | [12] 90 % of control and 95 % of control | [13] 92 % of control and 97 % of control | [14] 96 % of control

O=C1c2ccccc2C(=O)c2c(NCCCNCCO)ccc(NCCCNCCO)c21
inactive: endpoint: mean survival time, dose: 12.5 mg/kg/injection, schedule: Q01DX009 (ip), vehicle: saline with Tween-80 104 % of control | [15] 96 % of control | [1] 102 % of control

Nc1nc2c(ncn2-c2ccc(O)cc2)c(=O)[nH]1
inactive: [6] 96 % of control | [7] 87 % of control | endpoint: mean survival time, dose: 400.0 mg/kg/injection, schedule: Q01DX001 (ip), vehicle: saline with Tween-80 91 % of control

CCCC(C#CCN(C)C)N(C)C (stereo not drawn)
inactive: endpoint: mean survival time, dose: 12.5 mg/kg/injection, schedule: Q01DX009 (ip), vehicle: saline 97 % of control | endpoint: mean survival time, dose: 25.0 mg/kg/injection, schedule: Q01DX009 (ip), vehicle: saline 97 % of control | endpoint: mean survival time, dose: 50.0 mg/kg/injection, schedule: Q01DX009 (ip), vehicle: saline 98 % of control

NC(=O)C(Cl)(Cl)Cl
inactive: [2] 107 % of control | endpoint: mean survival time, dose: 100.0 mg/kg/injection, schedule: Q04DX003 (ip), vehicle: saline 103 % of control | [4] 104 % of control | endpoint: mean survival time, dose: 200.0 mg/kg/injection, schedule: Q04DX003 (ip), vehicle: saline 99 % of control | [8] 103 % of control | endpoint: mean survival time, dose: 400.0 mg/kg/injection, schedule: Q04DX003 (ip), vehicle: saline 99 % of control

O=S(=O)(Cl)C(Cl)(Cl)Cl
inactive: [15] 96 % of control | [1] 102 % of control | endpoint: mean survival time, dose: 50.0 mg/kg/injection, schedule: Q04DX003 (ip), vehicle: saline with Tween-80 97 % of control | [2] 95 % of control | [3] 94 % of control

O=C(Nc1ccc(Cl)c(Cl)c1)C(Cl)(Cl)Cl
inactive: endpoint: mean survival time, dose: 100.0 mg/kg/injection, schedule: Q01DX009 (ip), vehicle: saline + alcohol 91 % of control | endpoint: mean survival time, dose: 200.0 mg/kg/injection, schedule: Q01DX009 (ip), vehicle: saline + alcohol 89 % of control | endpoint: mean survival time, dose: 400.0 mg/kg/injection, schedule: Q01DX009 (ip), vehicle: saline + alcohol 91 % of control

O=[N+]([O-])c1ccc(Oc2nc(Cl)nc(Oc3ccc([N+](=O)[O-])cc3)n2)cc1
inactive: endpoint: mean survival time, dose: 25.0 mg/kg/injection, schedule: Q04DX003 (ip), vehicle: Klucel (hydroxypropylcellulose) (HPC) 93 % of control | endpoint: mean survival time, dose: 50.0 mg/kg/injection, schedule: Q04DX003 (ip), vehicle: Klucel (hydroxypropylcellulose) (HPC) 93 % of control | endpoint: mean survival time, dose: 100.0 mg/kg/injection, schedule: Q04DX003 (ip), vehicle: Klucel (hydroxypropylcellulose) (HPC) 86 % of control

CC12CCC(c3cn(C(=O)c4cccnc4)nc31)C2(C)C (stereo not drawn)
inactive: [12] 102 % of control | [13] 94 % of control

CNC(=O)OCc1c(COC(=O)NC)c(-c2ccc(Cl)c(Cl)c2)n2c1CCC2
inactive: [10] 109 % of control | [11] 110 % of control | [12] 107 % of control | [13] 105 % of control

CN(C)/C=N/NC(=O)c1ccccc1O
inactive: [3] 98 % of control | [5] 100 % of control | [9] 100 % of control

O=C(NNC(=O)c1ccncc1)NS(=O)(=O)c1ccc(Cl)cc1
inactive: [12] 101 % of control | [13] 90 % of control | [14] 97 % of control

COC(=O)Nc1cccc(OC(=O)NC(C)(C)CC(C)(C)C)c1
inactive: [15] 101 % of control | [1] 101 % of control | [2] 97 % of control

NS(=O)(=O)c1ccc(NC(=S)NC(=O)c2cccc3ccccc23)cc1
inactive: [2] 93 % of control | [4] 93 % of control | [8] 93 % of control

O=C1C(=O)C(Br)=C(Br)C(Br)=C1Br
inactive: [3] 91 % of control | [5] 91 % of control
